Results from patent publication US20170226560A1, “GOLD NANOPARTICLE-BASED HOMOGENEOUS COLORIMETRIC DIAGNOSTIC ASSAY FOR THE DETECTION OF PROTEASES AND PROTEASE INHIBITORS” (IMRA America, Inc., priority 2014, published 2017).
Ends that are not written are not given here.

Test system: trypsin
Experiment: Colloidal gold nanoparticle-based colorimetric assay for trypsin (hydrolytic cleavage of peptide substrate)
Assay type: biochemical
Conditions: 1000 nM peptide substrate, trypsin 200 pM, 20° C.
Experimental: Based on the design criteria for the peptide substrate mentioned above, a sequence of amino acids in the peptide substrate of SEQ ID NO: 1 Lys-Lys-Gly-Phe-Pro-Arg-Gly-Gly-Asp-Cys was used in an assay method patterned after FIG. 1a. Unless noted otherwise, all incubations and reactions reported in the present specification were conducted at 20° C. The final reaction volume in all experiments described in the present specification, unless noted otherwise, was 500 microliters and the gold nanoparticle concentration was 1 nM. […] Thus, in all of the described experiments the aggregation state of any gold nanoparticle solution could be measured after 30 minutes or less. […] All of these can be evaluated using the present inventive assay methods. […]
After confirming that the peptide substrate SEQ ID NO: 1 Lys-Lys-Gly-Phe-Pro-Arg-Gly-Gly-Asp-Cys did induce the aggregation of negative surface charged gold nanoparticles, we carried out another experiment of examining the ultraviolet-visible spectra of solutions of colloidal gold nanoparticles after they were added to solutions of peptide substrates that had been pre-exposed for different time periods of from 0 minutes (min) to 60 min to trypsin. […] The absorbance spectrum shifts back to a maximum at 520 nm±5 nm, non-aggregated nanoparticles, as the pre-exposure time increases. […]

KKGFPRGGDC [SEQ ID NO: 1, peptide substrate cleaved by trypsin; intact peptide aggregates negatively charged gold nanoparticles]
time for complete hydrolytic cleavage of the peptide substrate by trypsin: more than 60 min
